This note sets out measurements from US4478842A, “N-Substituted-2-pyridylindoles” (Ciba-Geigy Corporation, priority 1982, dated 1984).

Structures can show the parent of a compound that is named as a salt.

Test [1] relates to bleeding time. The experiment in a line: prolongation of bleeding time in the rat. The test is classed as in vivo. Conditions: orally to rats, about 30 mg/kg. An excerpt:
(§1) Experimentally, prolongation of bleeding time in the rat is indicative of a beneficial antithrombotic effect.

Test [2] relates to arachidonic acid induced pulmonary obstruction. Nature of the test: protection against sudden death due to arachidonic acid induced pulmonary obstruction. The test is classed as in vivo. To be noted: orally to mice, 100 mg/kg.
Test [3] relates to thrombocytopenia. The experiment in a line: variously induced thrombocytopenia. Conditions: in vivo.
Test [4] has as its system platelet aggregation. Nature of the test: variously induced platelet aggregation.
From the text: as §1

For test [5], the system named is prostacyclin (PGI2). The experiment in a line: plasma level of prostacyclin (6-keto-PGF1α) in vivo (ionophore A23187 injected). To be noted: rat, oral dose 0.10 mg/kg or higher. The protocol:
(§2) The inhibition of the synthesis and the reduction of plasma levels of thromboxane is determined in vivo on administration to rats in the following manner (as adapted from the procedures described by Tai et al. in Anal. Biochem. 87:343, 1978 and by Salmon in Prostaglandins 15:383, 1978):
(§3) Rats are dosed with vehicle or test drug and injected intravenously with ionophore A23187 (0.5 mg/kg) two hours later. Blood is collected for analysis 2 minutes after the ionophore injection. A single aliquot of each plasma sample is assayed for thromboxane B2 and another aliquot for 6-keto-PGF1 α, the stable metabolites of thromboxane A2 and prostacyclin (PGI2) respectively, by radioimmunoassay.

The target of test [6] is T1, thromboxane synthetase (Homo sapiens, UniProt P24557).
T1 construct: crude microsomal preparation of thromboxane synthetase from lysed human platelets; from tissue; host or cells: human platelets (lysed), crude microsomal preparation
T1 sequence (P24557 1-533): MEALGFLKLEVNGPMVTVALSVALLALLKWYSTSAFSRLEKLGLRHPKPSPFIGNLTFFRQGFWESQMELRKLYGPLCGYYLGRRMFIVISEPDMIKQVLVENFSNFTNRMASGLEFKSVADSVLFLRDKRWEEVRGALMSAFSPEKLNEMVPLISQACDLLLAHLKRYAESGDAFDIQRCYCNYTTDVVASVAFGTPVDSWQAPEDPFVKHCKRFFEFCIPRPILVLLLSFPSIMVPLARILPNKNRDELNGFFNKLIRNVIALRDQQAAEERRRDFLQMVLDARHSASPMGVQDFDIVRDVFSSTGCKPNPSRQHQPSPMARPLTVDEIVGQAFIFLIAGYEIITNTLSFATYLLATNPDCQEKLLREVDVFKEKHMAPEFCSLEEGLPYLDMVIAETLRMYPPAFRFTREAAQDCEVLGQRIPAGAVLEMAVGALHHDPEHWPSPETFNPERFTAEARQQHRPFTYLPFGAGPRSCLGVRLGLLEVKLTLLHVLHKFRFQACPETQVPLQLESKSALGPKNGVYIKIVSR
The experiment in a line: in vitro inhibition of the thromboxane synthetase enzyme (TxB2/PGF2α+β ratio). The test is classed as biochemical. To be noted: 30 minutes incubation. The protocol: Res. Comm. 74, 1432 (1977); the testing procedure is as follows: ^14 C-Arachidonic acid is incubated with an enzyme consisting of solubilized and partially purified prostaglandin cyclo-oxygenase from sheep seminal vesicles and a crude microsomal preparation of thromboxane synthetase from lysed human platelets. The test compound (dissolved in buffer, or if necessary, in a small amount of ethanol) is added to the incubation medium. […] The radioactive zones are located; those corresponding to Thromboxane B2 (TxB2) and PGF2 α+β are transferred to liquid scintillation vials and counted. The ratio of counts for TxB2 /PGF2 α+β is calculated for each concentration of test compound and IC50 values are determined graphically as the concentration of test compound at which the ratio of TxB2 /PGF2 α+β is reduced to 50% of the control value.

Test [7] relates to thromboxane B2. The experiment in a line: reduction of plasma levels of thromboxane B2 in vivo (ionophore A23187 injected). Conditions: rat, oral dose as low as 0.10 mg/kg. The protocol:
as §2, §3

Take `Cc1c(-c2cccnc2)n(CCCCCCCC(=O)O)c2ccccc12` [Example 1, 1-(7-carboxyheptyl)-3-methyl-2-(3-pyridyl)indole]: in test [1], the “prolongation of bleeding time” value is reported as “prolongs bleeding time”. Further, the “protection against sudden death” value in test [2] is on record as “protects against sudden death”. For the same compound, in test [3], the “inhibition of variously induced thrombocytopenia” value was “inhibits variously induced platelet aggregation and thrombocytopenia”. The “inhibition of variously induced platelet aggregation” value in test [4] was “inhibits variously induced platelet aggregation”. Also, in test [5], the “plasma level of prostacyclin” value is “surprising increase”.

`Cc1c(-c2cccnc2)n(CCSc2ccc(C(=O)O)cc2)c2ccccc12` [Example 22, 1-[2-(4-carboxyphenylthio)ethyl]-2-(3-pyridyl)-3-methylindole hydrochloride]: the IC50 in test [6] came to 58 nM.

For the compound `Cc1c(-c2cccnc2)n(CCCCCC(=O)O)c2ccc(Cl)cc12` [Example 7, 1-(5-carboxypentyl)-5-chloro-3-methyl-2-(3-pyridyl)indole], the “decrease of the plasma concentration of thromboxane B2” value in test [7] is “over 50%”. Further, in test [5], the “plasma level of prostacyclin” value was “surprising increase”.

`Cc1c(-c2cccnc2)n(CCOc2ccc(C(=O)O)cc2)c2ccccc12` [Example 20, 1-[2-(4-carboxyphenoxy)ethyl]-2-(3-pyridyl)-3-methylindole]: the IC50 in test [6] came out at 26 nM.

Broadly, the IC50 is the concentration that gives 50% inhibition.
